From US20240238254A1, “PHARMACOLOGICAL INTERVENTION OF THE ARACHIDONIC ACID PATHWAY TO CURE AMYOTROPHIC LATERAL SCLEROSIS” (The Johns Hopkins University, priority 2021, published 2024) come the findings set out here.

The test system of this test is SOD1^G93A mice. Kind of test: Mouse histological analyses (Exp 2 and Exp 3). The format is in vivo. From the text:
Hb9::GFP and ISL1::GFP mice were described previously^107,108. All experiments used protocols approved by the Animal Care and Ethics Committees of the Gwangju Institute of Science and Technology (GIST) in accordance with the National Institutes of Health Guide for the Care and Use of Laboratory Animals. For efficacy assessment of the caffeic acid, B6.Cg-Tg(SOD1^G93A)1Gur/J mice (Jackson Laboratory, Bar Harbor, ME) was used after in vitro fertilization (Macrogen, Seoul, Korea) and all the protocol was approved by the Institutional Animal Care and Use Committees of Dong-A University.
Caffeic acid (30) mg/kg) dissolved in PBS containing 10% ethanol or vehicle (PBS containing 10% ethanol) were orally administered 5 days/week from 60 days to 120 days of age. Three independent experiments were performed to evaluate the efficacy of caffeic acid. A total of 24 mice in each group (female=12, male=12) were used for evaluation of survival and behavioral assessments (Exp 1), and the same number of mice were used for histologic analyses (Exps 2 and 3). In the Exp 1, mice were monitored for neurological disease progression according to guidelines for preclinical animal research in ALS/MND (Ludolph AC et al, 2010). The neurological score was followed as Score 0.5 as disease onset (first signs of tremor and hind-limb splay defects) and the end stage (Score 4) was determined as loss of righting reflex within 30s. Neurological scoring was monitored daily and mice at the end stage were euthanized. Kaplan-Meier curves was used to analyze age of onset and survival using Graphpad Prism7 (GraphPad Software, San Diego, CA). Motor coordination and muscle integrity were assessed weekly using a Rotarod apparatus and grip strength device (Panlab Harvard Apparatus, Barcelona, Spain). Tissue analyses were performed in the Exp 2 (n=14 for each group) and Exp 3 (n=10 for each group). They were anesthetized with […] isofluran at 16 wks (Exp 2) and 20 wks (Exp 3) of age then perfused with 4% paraformaldehyde in PBS. L4-L5 segments of spinal cord were serially cut with the cryostat into 20 μm sections then stained with 0.1% (w/v) cresyl violet stain solution. Motor neurons with larger than 25 μm of dimeter in Lamina IX of the ventral horn were counted using Image J software (National Institutes of Health, Bethesda, USA) program, and 10) sections per sample (n=10 for each group) were averaged. Activated astrocytes and microglia in the spinal cord were detected using anti-GFAP Ab and rabbit anti-Iba1 Ab (Cell Signaling Technology, Beverly, MA) for 10 sections per sample (n=10 for each group). The integrated density of fraction area in the ventral horn were measured using Image J software for quantification of activated astrocytes and microglia. Neuromuscular junction was analyzed in gastrocnemius muscle (30 μm) with anti-a-bungarotoxin Ab to label AChR and anti-neurofilament H/synapsin Ab (Cell Signaling Technology) to label axon terminals. The innervated pretzel structures merged with two fluorescence were counted.

The mark [1] stands for this setting: 30 mg/kg orally, L4-L5 segments.

`O=C(O)/C=C/c1ccc(O)c(O)c1` [caffeic acid, 3,4-dihydroxy benenearcrylic acid]: under “30 mg/kg orally, 16 wks and 20 wks”, the “weight of gastrocnemius muscle” value was “correlated with the attenuated disease symptom”. Besides, under setting [1], the “activated astrocytes (GFAP) in the spinal cord” value is “attenuated their activation” and the “activated microglia (Iba1) in the spinal cord” value is on record as “attenuated their activation”. Moreover, the “number of motor neuron (larger than 25 μm) in the ventral horn of spinal cord” value (early symptomatic stage (16 wks, Exp 2), control 18.0±3.5, wild-type 30.0±2.8) was found to be 22.8±4.3. For the same compound, the innervated neuromuscular junction result (gastrocnemius muscle, 30 mg/kg orally) was “significantly spared”. In addition, the “number of motor neuron (larger than 25 μm) in the ventral horn of spinal cord” value (late symptomatic stage (20 wks, Exp 3), control 13.9±1.8) was determined as 17.5±3.8.
